Results on 23 compounds are retold here after the Deep4Chem optical property database.

This data set in a line: solvent given as SMILES.

Regarding `Oc1ccccc1/C=N/c1ccc(Cn2cncn2)cc1`, the emission maximum stood at 363.99 nm (in C1CCOC1); 324 nm (in C1COCCO1); 428.01 nm (in CC#N); 381 nm (in CC(C)=O); 367 nm (in CC(C)O); 314 nm (in CCCCCC). Besides, the emission maximum is 368 nm (in CCCCO); 407 nm (in CCO); 357 nm (in CCOC(C)=O); 346 nm (in CCOCC); 397.99 nm (in CN(C)C=O); 430 nm (in CO). Besides, the emission maximum is on record as 437.01 nm (in CS(C)=O), 326 nm (in Cc1ccccc1) and 363 nm (in ClCCl).
Regarding `Nc1cccc2c1-c1ccccc1C2=O`, the emission maximum (in C1CCCCC1) is listed as 513 nm, the emission maximum (in CC#N) is given as 604 nm, the emission maximum (in CCO) turned out to be 667 nm and the emission maximum (in c1ccccc1) was 544 nm.
In turn, `CCCCCCOc1cc(N(CC)CC)ccc1/C=C(\C#N)c1ccc(/C=C/C(=C(C#N)C#N)c2ccc3c(c2)c2ccccc2n3CC)s1` displayed an emission maximum (in ClCCl) of 742 nm.
As to `CC1=CC(C)=[N+]2C1=Cc1c3ccccc3c(-c3[nH]c(C)cc3C)n1[B-]2(F)F`, the emission maximum (in ClCCl) is listed as 631 nm.
The compound `c1ccc(/C(=C(\c2ccccc2)c2cc(-c3ccccc3)ccc2-c2ccccc2)c2cc(-c3ccccc3)ccc2-c2ccccc2)cc1` came in with an emission maximum (in C1CCOC1) of 489 nm.
`N#Cc1nc2c3ccc(-c4ccc(N(c5ccccc5)c5ccccc5)cc4)cc3c3cc(-c4ccc(N(c5ccccc5)c5ccccc5)cc4)ccc3c2nc1C#N`: the emission maximum by setting is: (in C1COCCO1) 633.42 nm; (in CCCCCC) 503.54 nm; (in Cc1ccccc1) 588 nm; (in ClC(Cl)Cl) 721.14 nm; (in O=P(c1ccccc1)(c1ccccc1)c1cccc(-c2cc(-n3c4ccccc4c4ccccc43)cc(-n3c4ccccc4c4ccccc43)c2)n1) 628 nm.
As to `CN(C)c1ccc(/C=C2\OC(=O)c3cc(N)ccc32)cc1`, the emission maximum (in CC#N) is recorded as 561.8 nm; the emission maximum (in CC(C)=O) is on record as 537.06 nm; the emission maximum (in CC(C)CO) is 542.89 nm; the emission maximum (in CC(C)O) is reported as 550.06 nm; the emission maximum (in CCCO) was determined as 559.91 nm; the emission maximum (in CCO) came out at 568.18 nm. In addition, the emission maximum came to 520.83 nm (in CCOC(C)=O), 444.84 nm (in CCOCC) and 568.18 nm (in CO).
For `COc1ccc(-c2ccc3c(c2)[Si](C)(C)c2cc(-c4ccc(OC)cc4)ccc2C=C3)cc1`, where the note is “in ClCCl”, the emission maximum is given as 424 nm.
Still for that read-out and setting: the figure for `Cc1c2cc3c(-c4ccccc4)c4c(c(-c5ccccc5)c3cc2c2n1[B-](F)(F)[n+]1c(C)c3cc5c(-c6ccccc6)c6c7cccc8cccc(c6c(-c6ccccc6)c5cc3c1=C2c1ccccc1)c87)-c1cccc2cccc-4c12` is 783 nm.
For `O=C(c1ccc(C(=O)c2ccc(N3c4ccccc4Oc4ccccc43)cc2)cc1)c1ccc(N2c3ccccc3Oc3ccccc32)cc1`, the emission maximum (in Cc1ccccc1) was 600 nm and the emission maximum (in c1cc(-c2cccc(-n3c4ccccc4c4ccccc43)c2)cc(-n2c3ccccc3c3ccccc32)c1) amounted to 555 nm.
`COc1ccccc1-c1nc2c3cccnc3c3ncccc3c2n1-c1ccccc1` gave an emission maximum (in Cc1ccccc1) of 396 nm.
The compound `c1cncc(-c2ccc(-c3c4ccccc4c(-c4ccc(-c5cccnc5)cc4)c4ccccc34)cc2)c1` yielded an emission maximum (in ClCCl) of 426 nm.
Consider `CCn1c2ccccc2c2cc(-c3cc(-c4ccc5c(c4)c4ccccc4n5CC)nc(-c4ccccc4)n3)ccc21`, for which the emission maximum is listed as 391 nm (in C1CCOC1); 389 nm (in CCOC(C)=O); 415 nm (in CN(C)C=O); 380 nm (in Cc1ccccc1); 405 nm (in ClCCl).
In the case of `Cc1cc(O)c(C(=O)/C=C/c2ccc(Cl)cc2)c(=O)o1`, the emission maximum (in CC#N) came out at 497 nm and the emission maximum (in ClCCl) came to 478 nm.
For `COC(=O)C(Cc1ccc2oc(-c3ccc(Nc4ccccc4)cc3)nc2c1)NC(=O)OC(C)(C)C` (configuration not stated), the emission maximum was 382 nm (in C1CCCCC1); 419.01 nm (in C1CCOC1); 410.51 nm (in C1COCCO1); 425.01 nm (in CC1CCCO1); 457.5 nm (in CC1COC(=O)O1); 452 nm (in CC#N). Moreover, the emission maximum is, setting by setting: (in CC(C)=O) 439.5 nm; (in CC(C)CC(C)(C)C) 384 nm; (in CC(C)CO) 438 nm; (in CC(C)O) 440.51 nm; (in CC(C)OC(C)C) 426 nm; (in CC(O)CO) 438 nm. The emission maximum is, setting by setting: (in CCC(C)CC) 382.98 nm; (in CCCCC) 382 nm; (in CCCCCC) 383.49 nm; (in CCCCCCCCC) 384.5 nm; (in CCCCCCCCCC) 385 nm; (in CCCCCCCO) 434.5 nm. Moreover, the emission maximum is, setting by setting: (in CCCCCCO) 429 nm; (in CCCCCO) 424 nm; (in CCCCO) 441.5 nm; (in CCO) 453.49 nm; (in CCOC(C)=O) 412 nm; (in CCOCC) 409.5 nm. Moreover, the emission maximum runs as follows: (in CN(C)C=O) 447.51 nm; (in CO) 457 nm; (in COCCOC) 440.01 nm; (in CS(C)=O) 459.5 nm; (in Cc1ccccc1) 401.49 nm; (in Cc1ccccc1C) 401.49 nm. The emission maximum is 420.01 nm (in ClC(Cl)Cl); 415.51 nm (in ClCCl); 447.01 nm (in NC=O); 440.01 nm (in OC1CCCCC1); 443.01 nm (in OCCO); 398.5 nm (in c1ccccc1).
Turning to `CN(C)c1ccc(/C=C/c2cc(/C=C/c3ccc(N(C)C)cc3)nc(/C=C/c3ccc(N(c4ccccc4)c4ccccc4)cc3)n2)cc1`, the emission maximum (in C1CCOC1) is on record as 521 nm; the emission maximum (in CC#N) came to 584 nm; the emission maximum (in CC(C)=O) amounted to 561 nm; the emission maximum (in CCCCCCC) is 451 nm; the emission maximum (in CS(C)=O) is 596 nm; the emission maximum (in Cc1ccccc1) was 480 nm. This compound returned an emission maximum (in ClCCl) of 533 nm.
`CN(C)c1ccc(C=C/C=C/C=C/c2ccc(C#N)cc2)cc1` yielded an emission maximum (in C1CCOC1) of 609 nm; an emission maximum (in CC#N) of 658 nm; an emission maximum (in CCCC#N) of 640 nm; an emission maximum (in CCCCCC) of 467 nm; an emission maximum (in CCCCOCCCC) of 541 nm; an emission maximum (in CCO) of 637 nm. This compound also yielded an emission maximum (in CCOCC) of 567 nm.
Take `COC(=O)c1ccc(/C=C2\N=C(c3ccc(OC)c(OC)c3)OC2=O)cc1`: the emission maximum (in C1COCCO1) amounted to 474 nm.
As to `C(=C\c1ccc(N(c2ccccc2)c2ccccc2)cc1)/c1ccccc1`, the emission maximum is 455 nm (in CC#N) and 395 nm (in CCCCCC).
`CC(C)(C)c1ccc2c(c1)c1cc(C(C)(C)C)ccc1n2-c1ccc(C(=CC#N)c2ccc(-n3c4ccc(C(C)(C)C)cc4c4cc(C(C)(C)C)ccc43)cc2)cc1` showed an emission maximum (in Cc1ccccc1) of 450 nm.
Take `O=C1CCCC2=C1C(c1ccccc1)c1c(c3ccccc3oc1=O)N2` (configuration not stated): the emission maximum (in CS(C)=O) is on record as 440 nm.
As to `CC/[NH+]=c1\cc2oc3cc(NCCC(=O)NC(C(=O)OC)c4ccccc4)c4ccccc4c3nc-2cc1C` (configuration not stated), the emission maximum is listed as 644 nm (in CCO) and 657 nm (in O).
For the compound `Cc1cc(C)c2c(c1)nc1c(=O)n(C)c(=O)nc-1n2C`, under “in CC#N”, the emission maximum is reported as 552 nm.
